Test results: PMC5219620 (International Journal for Parasitology: Drugs and Drug …, 2016)

Tested on: L6 cells
Experiment: AlamarBlue in vitro compound toxicity in L6 cells
Type: cell-based, rat
Details: upper bound of TI over T. copemani G1, G2 and T. cruzi

SMILES: Nc1nc(N)nc(Nc2ccc([As]3SCC(CO)S3)cc2)n1 (centres unmarked) [Melarsoprol, (2-(4-(4,6-diamino-1,3,5-triazin-2-ylamino)phenyl)-1,3,2-dithiarsolan-4-yl)methanol]
- Therapeutic index (TI), in general over all trypanosomes tested: < 12.1

SMILES: CCCCCCCCCCCCCCCCOP(=O)([O-])OCC[N+](C)(C)C [Miltefosine, hexadecylphosphocholine]
- Therapeutic index (TI), in general over all trypanosomes tested: < 2.4
